Assay results taken from US20220002359A1, “Voltage-Gated Calcium Channel Auxilliary Subunit Alpha 2 Delta and Uses Thereof” (Novassay, S.A., priority 2017, published 2022).
Where two headings read alike, the source gives them in different places.

Tests used:
[1] = biological target: Peptide 1 (P1; SEQ ID No. 4) comprising the gabapentin/pregabalin binding site of α2δ-1 (Homo sapiens, UniProt P54289); test: SPR binding to immobilized synthetic peptide P1; settings: RU400, subtracted from blank dextran reference
Experimental: Thiol coupling allows for uniform surface presentation of the immobilized peptide molecules and provides freedom to adopt a steric conformation that is determined by the amino acid sequence of the peptide.
Sensorgram running conditions were: • Compound stock solution: 50 mM, DMSO • Compound working stock dilution: 0.5-2 mM • Running buffer: HBS-P • Flow rate: 30 μl/min

[2] = biological target: human voltage-gated calcium channel subunit α2δ-1 (Homo sapiens, UniProt P54289)
[3] = biological target: T1, α2δ-1 recombinant peptide (SEQ ID No. 5) containing the VGCC_α2 domain (Homo sapiens, UniProt P54289); settings: Langmuir 1:1 fit, single concentration data
Experimental: (§1) The equilibrium dissociation constant KD=kd/ka was calculated and provides a single concentration estimate of the compound target binding affinity.

[4] = biological target: truncated recombinant α2δ-1 protein, Construct 1 (SEQ ID No. 2) (Homo sapiens, UniProt P54289); test: SPR binding of analyte to immobilized truncated α2δ-1 construct 1; settings: RU400, subtracted from human IgG reference; NVA1309 at increasing concentrations, pregabalin at 500 μM
[5] = biological target: T1, α2δ-1 recombinant peptide (SEQ ID No. 5) containing the VGCC_α2 domain; test: biochemical
Experimental: as §1

[6] = biological target: T2, truncated recombinant α2δ-1 protein, Construct 2 (SEQ ID No. 3) (Homo sapiens, UniProt P54289); test: SPR binding of analyte to immobilized truncated α2δ-1 construct 2; settings: RU400, subtracted from human IgG reference; NVA1309 at increasing concentrations, pregabalin at 500 μM
T2 construct: His tag; GST; made in house; host or cells: CHO cells (transient expression)
Experimental: Binding experiments were carried out using Surface Plasmon Resonance (SPR) technology in a Biacore instrument. Recombinant construct 1 and construct 2 were immobilized on the surface of two different flow cells (FC2 and FC3, respectively) of a Biacore CM5 optical sensor chip by covalent amine coupling chemistry, using the Biacore amine coupling kit and following the Biacore amine coupling protocol. Human IgG was immobilized to the reference flow cell FC1 as intra-assay background binding control.

[7] = biological target: T3, Peptide P3 (SEQ ID No. 6), carboxy terminal region of the VGGC_α2 domain of α2δ-1 (Homo sapiens, UniProt P54289); test: SPR binding to immobilized synthetic peptide P3; settings: RU400, subtracted from blank dextran reference; 0.5-2 mM
T3 construct: three glycines and a terminal cysteine (Peptide 3); made in house; host or cells: chemical synthesis
Excerpt: A synthetic peptide was constructed, representing the carboxy terminal of the VGGC_α2 domain of α2δ-1, carboxy-terminally fused to a flexible spacer consisting of three glycines and a terminal cysteine (Peptide 3; SEQ ID No. 6):
This peptide was covalently coupled via the carboxy-terminal cysteine to the surface (FC2) of a Biacore CM5 optical sensor chip using the Biacore Thiol Coupling Kit following the Biacore thiol coupling procedure. This strategy allows for uniform surface presentation of the immobilized peptide molecules and provides freedom to adopt a steric conformation determined by the amino acid sequence of the peptide. Compound NVA1309 was injected as analyte at increasing concentrations and the binding reaction was monitored by generation of real time sensorgrams, presented as subtracted curves from the blank FC1 dextran reference surface (see FIG. 13A).
Sensorgram running conditions were: • Compound stock solution: 50 mM, Dimethyl sulfoxide (DMSO) DMSO • Compound working dilution: 0.5-2 mM • Running buffer: HBS-P (Biacore) • Flow rate: 30 μl/min

[8] = biological target: T4, α2δ-1 recombinant peptide (SEQ ID No. 5) comprising the VGCC_α2 domain (Homo sapiens, UniProt P54289); test: SPR binding to immobilized α2δ-1 recombinant peptide; settings: RU400, subtracted from BSA reference; 0.5-2 mM
T4 construct: purchased CUSABIO CSB-YP004407HU; host or cells: yeast
Excerpt: The α2δ-1 recombinant peptide comprising the VGGC_α2 domain and containing a single cysteine near the carboxy terminus, was immobilized on the surface of a Biacore CM5 optical sensor chip using the Biacore Thiol Coupling Kit following the covalent thiol coupling chemistry. This immobilization process provides a sterically more uniform attachment of the ligand molecules to the sensor chip surface than the randomized amine coupling procedure. Bovine serum albumin (BSA) was immobilized to the reference flow cell FC1 as intra-assay background binding control. Compound NVA1309 was injected as analyte at increasing concentrations and the binding reaction was monitored by generation of real time sensorgrams, presented as subtracted curves from the BSA reference (see […]).
Sensorgram running conditions were: • Compound stock solution: 50 mM, Dimethyl sulfoxide (DMSO) DMSO • Compound working dilution: 0.5-2 mM • Running buffer: HBS-P • Flow rate: 30 μl/min

[9] = SPR binding of NVA1309 to immobilized P4-derived peptides, RU400 as % of peptide P4; settings: for % BINDING (RU400) 0.5 mM: NVA1309 0.5 mM; for % BINDING (RU400) 1 mM: NVA1309 1 mM; for % BINDING (RU400) 2 mM: NVA1309 2 mM; for % BINDING (RU400) mean: mean of 0.5, 1 and 2 mM NVA1309; for NVA1309 binding to the peptide, in words: compared with peptide P4
Experimental: This peptide was covalently coupled via the carboxy-terminal cysteine to the surface (FC2) of a Biacore CM5 optical sensor chip as described in Example 4 following the Biacore thiol coupling procedure. Compound NVA1309 was injected as analyte at increasing concentrations and the binding reaction was monitored by generation of real time sensorgrams, presented as subtracted curves from the blank FC1 dextran reference surface (FIGS. 14A & 14B).
Sensorgram running conditions were: • Compound stock solution: 50 mM, Dimethyl sulfoxide (DMSO) • Compound working dilution: 0.5-2 mM • Running buffer: HBS-P • Flow rate: 30 μl/min
This peptide was covalently coupled via the carboxy-terminal cysteine to the surface (FC3) of a new Biacore CM5 optical sensor chip using the Biacore thiol coupling procedure. Peptide P4 was immobilized on FC2 as a positive reference control, flow cell FC1 was left blank as negative background binding reference. Compound NVA1309 was injected as analyte at increasing concentrations and the binding reaction was monitored by generation of real time sensorgrams as described in the previous examples and presented as subtracted curves from the blank FC1 dextran reference surface.
A series of three concentration SPR binding experiments were carried out with peptides derived from the peptide P4 sequence (SEQ ID No. 7). These peptides were designed in order to determine the significance of single peptide 4-contained (P4) amino acid residues in binding compound NVA1309. The following peptides were prepared:
Synthetic peptides were covalently coupled to optical sensor chips via the terminal cysteines following the Biacore thiol coupling procedure and SPR binding experiments were run exactly under the same conditions as described in the previous examples. Relative binding strengths of the single peptides were read from three concentration RU400 values and calculated as percentage binding of the peptide P4 reference (P4: RU400=100%). […]

[10] = biological target: T5, α2δ-1 (RRR mutated to RRA) (Mus musculus, UniProt O08532, R241A); settings: knock-in mutant mouse; cited from earlier work
T5 construct: host or cells: knock-in mutant mouse (in vivo)

α2δ-1 = settings: partial sciatic ligation neuropathy, α2δ-1−/− mice; cited from earlier work
[11] = P4 RU400=100%, P4 scanning (Example 6)

T1 sequence (P54289 528-668): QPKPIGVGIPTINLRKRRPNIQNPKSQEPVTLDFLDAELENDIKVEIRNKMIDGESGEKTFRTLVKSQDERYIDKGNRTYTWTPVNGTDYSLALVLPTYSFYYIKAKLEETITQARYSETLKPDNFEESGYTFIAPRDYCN
Sequence of truncated recombinant α2δ-1 protein, Construct 1 (SEQ ID No. 2) (P54289 with tags, fused parts or gaps): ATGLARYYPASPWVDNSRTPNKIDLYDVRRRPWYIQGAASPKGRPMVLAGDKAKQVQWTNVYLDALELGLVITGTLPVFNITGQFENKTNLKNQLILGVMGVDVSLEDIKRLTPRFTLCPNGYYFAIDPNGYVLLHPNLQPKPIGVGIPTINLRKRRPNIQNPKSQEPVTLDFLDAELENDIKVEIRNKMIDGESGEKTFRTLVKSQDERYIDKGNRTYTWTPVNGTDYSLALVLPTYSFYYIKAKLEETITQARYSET
Sequence of human voltage-gated calcium channel subunit α2δ-1 (P54289 25-1103): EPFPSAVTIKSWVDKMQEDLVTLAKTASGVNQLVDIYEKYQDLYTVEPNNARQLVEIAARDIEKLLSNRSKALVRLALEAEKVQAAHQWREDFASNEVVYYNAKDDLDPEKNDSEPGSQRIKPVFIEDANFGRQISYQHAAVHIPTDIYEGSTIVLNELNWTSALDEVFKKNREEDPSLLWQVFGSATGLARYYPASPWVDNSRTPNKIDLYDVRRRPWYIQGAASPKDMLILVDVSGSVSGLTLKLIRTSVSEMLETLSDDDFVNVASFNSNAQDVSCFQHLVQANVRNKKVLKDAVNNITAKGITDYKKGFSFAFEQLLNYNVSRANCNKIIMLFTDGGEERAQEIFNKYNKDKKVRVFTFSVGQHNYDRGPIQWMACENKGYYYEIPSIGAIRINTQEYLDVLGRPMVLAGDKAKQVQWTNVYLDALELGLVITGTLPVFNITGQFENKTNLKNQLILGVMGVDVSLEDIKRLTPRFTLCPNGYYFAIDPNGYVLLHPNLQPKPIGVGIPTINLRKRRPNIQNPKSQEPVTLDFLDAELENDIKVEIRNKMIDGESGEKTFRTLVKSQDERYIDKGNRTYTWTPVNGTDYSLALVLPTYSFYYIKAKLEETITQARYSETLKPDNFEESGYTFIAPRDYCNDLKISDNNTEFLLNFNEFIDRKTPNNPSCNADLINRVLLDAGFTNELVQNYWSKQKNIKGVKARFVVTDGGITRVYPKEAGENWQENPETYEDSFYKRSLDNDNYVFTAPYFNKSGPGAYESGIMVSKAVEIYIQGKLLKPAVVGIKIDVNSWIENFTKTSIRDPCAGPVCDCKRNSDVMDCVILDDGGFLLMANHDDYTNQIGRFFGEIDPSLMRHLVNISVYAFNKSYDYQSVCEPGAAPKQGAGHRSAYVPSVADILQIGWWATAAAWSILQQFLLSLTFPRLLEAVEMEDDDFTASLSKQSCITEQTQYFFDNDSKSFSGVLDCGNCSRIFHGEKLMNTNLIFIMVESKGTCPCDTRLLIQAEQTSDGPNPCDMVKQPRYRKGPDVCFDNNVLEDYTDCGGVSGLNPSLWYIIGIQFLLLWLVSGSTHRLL
Sequence of Peptide 1 (P1; SEQ ID No. 4) comprising the gabapentin/pregabalin binding site of α2δ-1 (P54289 with tags, fused parts or gaps limits assumed): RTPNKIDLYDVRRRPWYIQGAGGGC
T2 sequence (P54289 with tags, fused parts or gaps): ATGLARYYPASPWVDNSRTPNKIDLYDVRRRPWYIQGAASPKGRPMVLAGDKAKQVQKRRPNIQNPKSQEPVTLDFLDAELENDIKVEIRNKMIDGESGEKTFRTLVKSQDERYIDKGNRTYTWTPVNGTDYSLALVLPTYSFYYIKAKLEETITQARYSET
T3 sequence (P54289 with tags, fused parts or gaps limits assumed): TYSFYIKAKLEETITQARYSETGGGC
T5 sequence (O08532 25-1103 R241A): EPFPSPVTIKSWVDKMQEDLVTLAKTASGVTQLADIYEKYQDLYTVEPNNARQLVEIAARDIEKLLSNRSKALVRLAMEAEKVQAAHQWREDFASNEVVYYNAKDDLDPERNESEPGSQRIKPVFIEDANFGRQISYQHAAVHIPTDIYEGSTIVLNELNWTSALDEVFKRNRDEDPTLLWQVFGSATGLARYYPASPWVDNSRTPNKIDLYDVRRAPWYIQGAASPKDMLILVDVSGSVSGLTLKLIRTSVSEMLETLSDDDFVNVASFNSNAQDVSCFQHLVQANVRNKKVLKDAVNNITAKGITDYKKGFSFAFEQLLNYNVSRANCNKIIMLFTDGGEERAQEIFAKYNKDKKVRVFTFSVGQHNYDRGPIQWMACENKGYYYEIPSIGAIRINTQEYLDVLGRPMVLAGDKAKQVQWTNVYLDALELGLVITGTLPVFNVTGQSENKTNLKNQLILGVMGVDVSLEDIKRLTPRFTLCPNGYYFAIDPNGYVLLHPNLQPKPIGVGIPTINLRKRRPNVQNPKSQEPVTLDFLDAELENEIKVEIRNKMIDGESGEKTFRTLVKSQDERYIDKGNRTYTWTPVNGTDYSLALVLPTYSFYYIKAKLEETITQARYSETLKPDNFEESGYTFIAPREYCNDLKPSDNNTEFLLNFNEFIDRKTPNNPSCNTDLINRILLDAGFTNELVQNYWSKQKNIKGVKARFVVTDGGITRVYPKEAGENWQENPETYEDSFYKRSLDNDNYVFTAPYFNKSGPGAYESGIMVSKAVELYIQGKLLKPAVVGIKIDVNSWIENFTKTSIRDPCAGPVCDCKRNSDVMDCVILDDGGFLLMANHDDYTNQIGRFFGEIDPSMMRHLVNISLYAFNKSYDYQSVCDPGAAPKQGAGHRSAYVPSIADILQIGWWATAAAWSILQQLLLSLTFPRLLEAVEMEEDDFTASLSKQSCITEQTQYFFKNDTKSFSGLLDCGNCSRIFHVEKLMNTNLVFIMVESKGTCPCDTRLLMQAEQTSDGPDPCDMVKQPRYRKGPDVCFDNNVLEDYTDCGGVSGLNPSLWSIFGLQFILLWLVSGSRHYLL
T5 sequence (O08532 958-1103 partner limits assumed): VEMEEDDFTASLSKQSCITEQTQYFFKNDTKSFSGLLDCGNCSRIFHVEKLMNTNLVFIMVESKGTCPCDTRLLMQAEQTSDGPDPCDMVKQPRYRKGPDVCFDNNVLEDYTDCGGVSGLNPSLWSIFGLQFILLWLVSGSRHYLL
T4 sequence (P54289 528-668): as the sequence (P54289 528-668) above

CCC1=C[C@@H]2[C@H](C1)C[C@]2(CN)Cc1nnn[nH]1 [NVA1309, [(1R,5S,6S)-3-Ethyl-6-(1H-tetrazol-5-ylmethyl)-6-bicyclo[3.2.0]hept-3-enyl]methanamine]
SPR binding to immobilized peptide P1 [1]: concentration-dependent binding
IC50 ([2]; recombinant membranes over-expressing the human α2δ-1 subunit (PCT/EP2014/077937); read-out: IC50 of binding; cited from earlier work): 2.1 nM
kd [3]: 0.00061 s⁻¹
SPR binding to immobilized construct 1 [4]: concentration-dependent binding
Kd [5]: 33.8 nM
kon ([5]; read-out: ka): 18000 M⁻¹ s⁻¹
SPR binding to immobilized construct 2 [6]: concentration-dependent binding
SPR binding to immobilized peptide P3 [7]: concentration dependent binding
SPR binding to immobilized α2δ-1 recombinant peptide [8]: concentration-dependent binding

IKAKLEETITQAGGGC (Peptide P4, carboxy-terminal VGGC_a2 region (II) + GGGC anchor) [carboxy-terminal VGGC_α2 region (II) + GGGC anchor, positive control]
% BINDING (RU400) 0.5 mM ([9]; P4=100%, Example 7): 100%
% BINDING (RU400) 0.5 mM [9, 11]: 100%
% BINDING (RU400) 1 mM ([9]; P4=100%, Example 7): 100%
% BINDING (RU400) 1 mM [9, 11]: 100%
% BINDING (RU400) 2 mM ([9]; P4=100%, Example 7): 100%
% BINDING (RU400) 2 mM [9, 11]: 100%
% BINDING (RU400) mean ([9]; P4=100%, Example 6): 100%
% BINDING (RU400) mean ([9]; P4=100%, Example 7): 100%

IKAKLAATITQAGGGC (Peptide P11, P4 analogue - negatively charged side chains A-substituted + GGGC anchor)
% BINDING (RU400) 0.5 mM [9, 11]: 23%
% BINDING (RU400) 1 mM [9, 11]: 22%
% BINDING (RU400) 2 mM [9, 11]: 25%
% BINDING (RU400) mean ([9]; P4=100%, Example 6): 23.3%

IAAALEETITQAGGGC (Peptide P10, P4 analogue - positively charged side chains A-substituted + GGGC anchor)
% BINDING (RU400) 0.5 mM [9, 11]: 4%
% BINDING (RU400) 1 mM [9, 11]: 4%
% BINDING (RU400) 2 mM [9, 11]: 4%
% BINDING (RU400) mean ([9]; P4=100%, Example 6): 4%

CC(C)C[C@H](CN)CC(=O)O [Pregabalin, reference compound]
SPR binding to immobilized peptide P1 [1]: no positive SPR signal
IC50 ([2]; read-out: IC50 of binding; recombinant membranes over-expressing the human α2δ-1 subunit (PCT/EP2014/077937); cited from earlier work): 23 nM
SPR binding to immobilized construct 1 [4]: lack of pregabalin binding
alleviating chronic pain resulting from nerve injury [10]: no longer effective
SPR binding to immobilized construct 2 [6]: lack of pregabalin binding
ability to alleviate mechanical hypersensitivity (α2δ-1): lost

IKAKLEEAIAQAGGGC (Peptide P12, P4 analogue - polar side chains A-substituted + GGGC anchor)
% BINDING (RU400) 0.5 mM [9, 11]: 14%
% BINDING (RU400) 1 mM [9, 11]: 15%
% BINDING (RU400) 2 mM [9, 11]: 17%
% BINDING (RU400) mean ([9]; P4=100%, Example 6): 15.3%

AQTITEELKAKIGGGC (Peptide P8, Inverse peptide P4 + GGGC anchor)
% BINDING (RU400) 0.5 mM [9, 11]: 3%
% BINDING (RU400) 1 mM [9, 11]: 2%
% BINDING (RU400) 2 mM [9, 11]: 2%
NVA1309 binding to the peptide, in words [9]: lack of binding
% BINDING (RU400) mean ([9]; P4=100%, Example 6): 2.3%

LRVRIDDSLSNVGGGC (Peptide P9, P4 analogue - all aa substituted by most similar ones + GGGC anchor)
% BINDING (RU400) 0.5 mM [9, 11]: 1%
% BINDING (RU400) 1 mM [9, 11]: 1%
% BINDING (RU400) 2 mM [9, 11]: 2%
% BINDING (RU400) mean ([9]; P4=100%, Example 6): 1.3%

ETITQARYSETLKPGGGC (Peptide P6, carboxy-terminal VGGC_a2 region (IV) + GGGC anchor) [C-terminal P4 extension + GGGC anchor]
% BINDING (RU400) 0.5 mM [9, 11]: 9%
% BINDING (RU400) 1 mM [9, 11]: 7%
% BINDING (RU400) 2 mM [9, 11]: 9%
NVA1309 binding to the peptide, in words [9]: significant loss of NVA1309 binding capacity
% BINDING (RU400) mean ([9]; P4=100%, Example 6): 8.3%

IKAKGGGC (Peptide P15, P4 analogue containing only the amino-terminal part of P4 + GGGC anchor)
% BINDING (RU400) 0.5 mM ([9]; P4=100%, Example 7): 19%
% BINDING (RU400) 1 mM ([9]; P4=100%, Example 7): 25%
% BINDING (RU400) 2 mM ([9]; P4=100%, Example 7): 26%
% BINDING (RU400) mean ([9]; P4=100%, Example 7): 23%

IAAKLEETITQAGGGC (Peptide P13, P4 analogue with Lysine in position 2 (K) substituted by Alanine (A) + GGGC anchor) [P4 analogue, K2 A-substituted + GGGC anchor]
% BINDING (RU400) 0.5 mM ([9]; P4=100%, Example 7): 133%
% BINDING (RU400) 1 mM ([9]; P4=100%, Example 7): 88%
% BINDING (RU400) 2 mM ([9]; P4=100%, Example 7): 90%
% BINDING (RU400) mean ([9]; P4=100%, Example 7): 104%

IKAALEETITQAGGGC (Peptide P14, P4 analogue with Lysine in position 4 (K) substituted by Alanine (A) + GGGC anchor) [P4 analogue, K4 A-substituted + GGGC anchor]
% BINDING (RU400) 0.5 mM ([9]; P4=100%, Example 7): 0%
% BINDING (RU400) 1 mM ([9]; P4=100%, Example 7): 11%
% BINDING (RU400) 2 mM ([9]; P4=100%, Example 7): 6%
% BINDING (RU400) mean ([9]; P4=100%, Example 7): 6%
